Measurements taken from patent US20220233556A1, “COMPOSITIONS AND METHODS FOR TREATING OPHTHALMIC CONDITIONS” (Medicon Pharmaceuticals, Inc., priority 2017, published 2022).
Where two headings read alike, the source gives them in different places.

Tests used:
NF-κB [1] = experiment: NF-κB activation by EMSA in TNF-α-stimulated human conjunctival cells; type: cell-based; settings: PS 5 h, then TNF-α 10 ng/ml, EMSA 1 h later
Experimental: (§1) FIGS. 6A and 6B illustrate that PS suppresses the activation of NF-κB and MAPKs. In FIG. 6A, NF-κB activation was determined by EMSA in cultured human conjunctival cells stimulated with TNFα (top) and in the ILG of rabbits with Con A-induced DED and treated for one week with either vehicle or PS (bottom). In FIG. 6B, immunoblots detecting the activation of MAPKs by phosphorylation in cultured human conjunctival cells treated with PS at the indicated concentrations for 3.5 h. Loading control: β-actin.
The Mechanism of Action of PS in Dry Eye. Tissue culture, animal and human studies have established inflammation as the core mechanism of DED. To determine the mechanism of action of PS in DED the response to PS of several factors known to play an important role in the inflammation associated with DED was explored. They include NF-κB; the cytokines TGF-β, IL-1β, IL-6 and IL-8; the collagenases MMP-1 and MMP-9; and PGE2. In these studies human conjunctival epithelial cells were used, the Wong-Kilbourne derivative of Chang conjunctival cells (clone 1 to 5c-4l American Type Culture Collection (Manassas, Va.) certified cell line, 20.2).
Human conjunctival cells were treated with various concentrations of PS. Five hours later, TNF-α was added to the culture medium to a final concentration of 10 ng/ml and the status of NF-κB activation was determined by EMSA 1 h later. […]

NF-κB [2] = experiment: NF-κB activation in the ILG of rabbits with DED; type: in vivo; settings: 1 week of treatment, vs vehicle
Experimental: as §1
Human conjunctival cells were treated with various concentrations of PS. Five hours later, TNF-α was added to the culture medium to a final concentration of 10 ng/ml and the status of NF-κB activation was determined by EMSA 1 h later. […] Similarly, after 1 week of treatment, PS suppressed NF-κB activation in the ILG of rabbits with DED compared to those treated with vehicle.

[3] = test system: ocular inflammation (cataract surgery plus LPS); experiment: Ocular inflammation after cataract surgery plus LPS in rabbits; type: in vivo, New Zealand white rabbits; settings: PS 3.5% nanoparticles
Experimental: The anti-inflammatory effect of PS in New Zealand white rabbits was evaluated following cataract surgery and administration of the proinflammatory bacterial lipopolysaccharide (LPS). Briefly, the lens was removed by phacoemulsification and aspiration and replaced with the hydrophobic acrylic intraocular lens (AR40e, AMO). Upon completion of the operation, 1 μg of LPS dissolved in 10 μl PBS was injected into the vitreous to induce uveitis.
Rabbits were treated with PS 3.5% formulated in nanoparticles or vehicle (nanoparticles without PS) applied topically as eye drops three times per day. The first application was made within 1 h after completion of surgery. The rabbits were examined daily and the aqueous humor (AH) was sampled by needle aspiration on days 1, 3, and 5 following the injection of LPS. The number of infiltrating cells in the AH was determined following standard methods. On day 5, the rabbits were euthanized and the implanted lens was removed and fixed in 2.5% glutaraldehyde and the number of inflammatory cells attached to the lens was examined under a dissecting microscope.

[4] = PS levels in ocular tissues after topical gellan gum-based in-situ gel; type: in vivo, New Zealand white rabbits; settings: New Zealand white, rabbit, gellan gum 0.5% in-situ gel, 2.4~3% PS, eye drops
Experimental: Composition: 2.4˜3% PS; 0.5% Gellan gum; 5% Vitamin E TPGS; 10% (2-hydroxypropyl)-β-cyclodextrin. Preparation Method: A Gellan gum solution was prepared by adding a certain amount of gellan gum to deionized water and heating the mixture to 90° C. with fast stirring (500 rpm). Once completely dissolved, the solution was filtered through a 0.22 μm filter. Then, PS and additional excipients were added to the system to achieve the above concentrations and stirred at 50° C. at 500 rpm for 30 minutes to allow complete dissolution.
Results: The above PS formulation was administered topically as eye drops to the eyes of New Zealand white rabbits. The levels of PS in ocular tissues at 2 h later were determined by HPLC.

[5] = PS biodistribution after topical alternative gellan gum-based in-situ gel; type: in vivo, New Zealand white rabbits; settings: New Zealand white, rabbit, alternative gellan gum 0.4% gel
Experimental: Composition: 2.4-3% PS; 0.4% Gellan gum; 10% Vitamin E TPGS; 5% (2-hydroxypropyl)-β-cyclodextrin.
Results: PS in this formulation was administered topically to the eyes of New Zealand white rabbits and its biodistribution was determined as above.

[6] = PS biodistribution after topical Poloxamer 407-based in-situ gel; type: in vivo, New Zealand white rabbits; settings: Poloxamer 407 gel, eye drops; for concentration at 3 h: New Zealand white, rabbit, topical, 5.4 % PS in formulation
Experimental: Composition: 5.4% PS; 20% Poloxamer 407; 12% Vitamin E TPGS.
Preparation Method: Poloxamer 407 solution (thermosensitive gel solution) was prepared using a “cold method.” The required amount of Poloxamer 407 and other excipients were dissolved in cold double-distilled water at 4° C. The mixture was stirred continuously until a clear solution was obtained. Then the appropriate amount of PS was dissolved in cold PM solution with continuous stirring at room temperature until a clear solution formed.
Results: PS in this formulation was administered topically as eye drops to the eyes of New Zealand white rabbits. The biodistribution of PS in ocular tissues at 3 h and 6 h was determined by HPLC.

[7] = aqueous humor, read-out: PS in Aqueous humor
[8] = conjunctiva, read-out: PS in Conjunctiva

SMILES: CCOP(=O)(OCC)OCCCCOC(=O)CC1=C(C)/C(=C/c2ccc([S+](C)[O-])cc2)c2ccc(F)cc21 (stereo not drawn) [PS, phosphosulindac]
- activation of NF-κB (NF-κB [1]): significantly suppressed
- NF-κB activation in the ILG (NF-κB [2]): suppressed
- number of inflammatory cells in AH ([3]; day 3, vehicle 24−35×10^4/ml): < 70000 mL⁻¹
- inflammatory cells attached to implanted lens ([3]; day 5): very few or no cells
- ocular inflammation (clinical appearance) ([3]; eye drops three times per day, first 24 h): essentially eliminated
- concentration at 2 h [4, 7]: 1.2 µM
- concentration at 2 h [4, 8]: 24.1 µM
- concentration at 2 h ([4]; cornea, read-out: PS in Cornea): 72 µM
- concentration at 0.5 h [5, 7]: 0.6 µM
- concentration at 1 h [5, 7]: 0.4 µM
- concentration at 0.5 h [5, 8]: 37.7 µM
- concentration at 1 h [5, 8]: 20.8 µM
- concentration at 3 h [5, 8]: 700 nM
- concentration at 5 h [5, 8]: 1100 nM
- concentration at 8 h [5, 8]: 700 nM
- concentration at 0.5 h ([5]; cornea, read-out: PS in Cornea): 24.3 µM
- concentration at 1 h ([5]; cornea, read-out: PS in Cornea): 50.8 µM
- concentration at 3 h ([5]; cornea, read-out: PS in Cornea): 1500 nM
- concentration at 5 h ([5]; cornea, read-out: PS in Cornea): 1100 nM
- concentration at 8 h ([5]; cornea, read-out: PS in Cornea): 1600 nM
- PS in Aqueous humor ([6]; 3 h, 5.4% PS): 0.3 µM
- PS in Conjunctiva ([6]; 3 h, 5.4% PS): 5.6 µM
- PS in Aqueous humor ([6]; 6 h, 5.4% PS): 0.3 µM
- PS in Conjunctiva ([6]; 6 h, 5.4% PS): 10.7 µM
- PS in Cornea ([6]; 6 h, 5.4% PS): 13.6 µM
- concentration at 3 h ([6]; choroid, 3 h, read-out: PS in Choroid): 0.9 µM
- concentration at 3 h ([6]; cornea, 3 h, read-out: PS in Cornea): 45.1 µM
